Measurements as given in patent US9127016B2, “Small molecule inhibitors of Dusp6 and uses therefor” (University of Pittsburgh—Of the Commonwealth System of …, priority 2009, dated 2015).

What was measured:
[1] = test system: cardiac progenitors / heart size; experiment: Cardiac progenitor and heart size analysis in treated embryos; type: in vivo, zebrafish
Protocol: (§1) In situ hybridization experiments were carried out as described previously (Kudoh, T. et al. Genome Res 11, 1979-87 (2001)). The probes eng3, krox20, sef, dusp6, gata4, nkx2.5, cmlc2, vmhc, scl, etsrp and hand2 were generated with a RNA labeling kit (Roche) (Tsang, M. et al. Development 131, 2769-79 (2004); Chen, J. N. et al. Development 122, 3809-16 (1996); Ekker, M., et al. Development 116, 1001-10 (1992); Liao, E. C. et al. Genes Dev 12, 621-6 (1998); Oxtoby, E. et al. Nucleic Acids Res 21, 1087-95 (1993); Pham, V. N. et al. Dev Biol 303, 772-83 (2007); Tsang, M., et al. Nat Cell Biol 4, 165-9 (2002); Yelon, D., et al. Dev Biol 214, 23-37 (1999); and Yelon, D. et al. Development 127, 2573-82 (2000)). The double fluorescent in situ hybridization protocol was described by Schoenbeck et al. (Dev Cell 13, 254-67 (2007)). Fluorescent in situ hybridizations were visualized by confocal microscopy. Single optical sections and z-series of flat-mounted stained embryos were collected with a confocal laser scan head (SP5, Leica Microsystems, Inc.) mounted on an inverted compound microscope (DM16000, Leica Microsystems, Inc.). Images were scanned and compiled with NIH ImageJ software (rsb.info.nih.gov/ij/).
The identification of a small molecule that blocks the biologically relevant activity of Dusp6 and Dusp1 allowed us to probe the requirement for these enzymes in later developmental processes. Given that BCI could potentially block related members of the Dusp family, we examined the expression of other dusps in zebrafish. Detailed expression analyses of several dusps have been described and include dusp4, dusp1, dusp7, dusp5, and dusp22a (Qian, F. et al. Dev Dyn 233, 1163-72 (2005); Sumanas, S., et al. Blood 106, 534-41 (2005); Brown, J. L. et al. Proc Natl Acad Sci USA 105, 12337-42 (2008); Kudoh, T. et al. Genome Res 11, 1979-87 (2001); and Thisse, B. et al. Fast Release Clones: A High Throughput Expression Analysis. ZFIN Direct Data Submission (zfin.org) (2004)). Of these only Dusp6 functions as a feedback regulator of FGF/MAPK/ERK signaling and is expressed within the anterior lateral plate mesoderm, supporting the idea that this phosphatase plays a role in heart development. In early embryogenesis, Dusp6 is an important regulator of FGF signaling; knock-down with antisense morpholinos results in embryo polarity defects, which precludes the study of Dusp6′s role in later development (Tsang, M. et al. Development 131, 2769-79 (2004)). In contrast, small molecules permit the analysis at later stages of development due to rapid and transient perturbation of their biological targets. Using BCI as a chemical probe, we asked how inhibiting Dusp6 activity would alter patterning and formation of the heart. The zebrafish heart develops from a small group of cardiac progenitor cells that can be identified by 5 hpf within the mesodermal layer of the blastula stage embryo. During gastrulation, cardiac progenitor cells undergo cellular migration to form two bilateral populations known as the anterior lateral plate mesoderm (ALPM) located just behind the MHB, and begin to express the transcription factors nkx2.5 and gata4. Studies have described a role for Fgf8 in zebrafish heart development. In embryos harboring an fgf8 mutation, both atria and ventricular cells are reduced (Marques, S. R., et al. Dev Biol 321, 397-406 (2008) and Reifers, F., et al. Development 127, 225-35 (2000)). In agreement with the notion that FGF signaling plays a role in stipulating heart size, ectopic expression of a constitutively activated FGF receptor (Fgfrl) during somitogenesis stages expanded cardiac tissue (Marques, S. R., et al. Dev Biol 321, 397-406 (2008)). Therefore we used BCI to test if Dusp6 limits FGF signaling and restricts cardiac progenitors and heart organ size. In BCI-treated embryos a caudal expansion of gata4 in the ALPM was observed (compare FIG. 14a & a′ to 14b & b′; 81%, n=16). […]

[2] = test system: XFD (dominant negative FGF receptor); experiment: Zebrafish mRNA microinjection, rescue of sef expression, XFD; type: in vivo; settings: 5 μM BCI, shield stage
Protocol: dusp6 and XFD mRNA for microinjection studies were generated as previously described (Tsang, M. et al. Development 131, 2769-79 (2004)). Both Dusp5 and Spry4 ORFs were amplified by RT-PCR from 24 hpf zebrafish with the following primers: […]
Amplified PCR products were subcloned into pCS2+, sequenced verified and mRNAs were synthesized as described previously. Embryos were injected with 500 pg mRNA at the 1-2 cell stage, treated with 5 μM BCI at the 1000-cell stage and fixed at shield stage for in situ hybridization.
as §1, with “Fluorescent in situ hybridizations were visualized by confocal microscopy. Single optical sections and z-series of flat-mounted stained embryos were collected with a confocal laser scan head (SP5, Leica Microsystems, Inc.) mounted on an inverted compound microscope (DM16000, Leica Microsystems, Inc.). Images were scanned and compiled with NIH ImageJ software (rsb.info.nih.gov/ij/).” left out

## O=C1/C(=C/c2ccccc2)C(NC2CCCCC2)c2ccccc21 (stereo not shown) [Compound 3, (E)-2-benzylidene-3-(cyclohexylamino)-2,3-dihydro-1H-inden-1-one]
[1]; 10-somite stage, n=19
  embryos with expansion of cardiac hand2 expression: 32%
[1]; 18-somite stage, n=16
  embryos with increase in cmlc2 positive cells: 81%
[1]; n=11
  embryos with expanded nkx2.5 cardiac progenitor pools: 91%
[1]; n=16, 10-somite stage
  embryos with caudal expansion of gata4 in the ALPM: 81%
[1]; treated at 40% epiboly, washout next day, 56 hpf
  cardiac tissue in larvae: marked expansion in cardiac tissue
[1]; treated from the 1-somite stage, n=15
  embryos with marked reduction in scl expression: 93%
[2]
  reversal of effects of XFD mRNA on sef expression: did not reverse
